Laboratory results taken from patent publication US20250115597A1, “TYK2 INHIBITORS AND COMPOSITIONS AND METHODS THEREOF” (LYNK PHARMACEUTICALS CO. LTD., priority 2021, published 2025).
In brackets after ≈: the same amount, converted by molar mass.

Experiments:
TYK2-JH2 domain = molecular target: T1, TYK2-JH2 domain (Homo sapiens, UniProt P29597); experiment: Binding activity test for JH2 domain of TYK2 (Tb-antibody/tracer FRET); details: for JAK1/TYK2 selectivity: ratio JAK1-JH2 IC50 / TYK2-JH2 IC50
T1 construct: IC50 on JH2 domain activity (nM)
T1 sequence (P29597 589-875 limits assumed): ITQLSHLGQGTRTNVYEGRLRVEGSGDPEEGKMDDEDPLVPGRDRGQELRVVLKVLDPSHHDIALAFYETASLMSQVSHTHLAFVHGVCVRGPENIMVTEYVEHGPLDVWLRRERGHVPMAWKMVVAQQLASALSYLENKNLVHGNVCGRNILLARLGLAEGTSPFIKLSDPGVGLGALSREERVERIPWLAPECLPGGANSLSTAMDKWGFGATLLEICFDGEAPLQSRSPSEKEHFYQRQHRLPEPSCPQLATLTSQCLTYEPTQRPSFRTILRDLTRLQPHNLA
How it was run: (§1)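 FRET read-out after 60 min at 25° C plus overnight at 4° C; tracer displacement detected via Tb-labelled antibody on the JH2 domain. Dose-response used 11 points at 3-fold dilution.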

[1] = molecular target: T2, Ba/F3-FL-TYK2-P760L cells (Homo sapiens, UniProt P29597, P760L, cells depend on it); experiment: Anti-proliferative assay, Ba/F3-FL-TYK2-P760L cells (Cell-Titer Glo); assay type: cell-based; details: 72 h, read-out: BaF3-FL-T2P760L IC50
T2 construct: BaF3-FL-T2P760L (nM)
T2 sequence (P29597 whole entry P760L): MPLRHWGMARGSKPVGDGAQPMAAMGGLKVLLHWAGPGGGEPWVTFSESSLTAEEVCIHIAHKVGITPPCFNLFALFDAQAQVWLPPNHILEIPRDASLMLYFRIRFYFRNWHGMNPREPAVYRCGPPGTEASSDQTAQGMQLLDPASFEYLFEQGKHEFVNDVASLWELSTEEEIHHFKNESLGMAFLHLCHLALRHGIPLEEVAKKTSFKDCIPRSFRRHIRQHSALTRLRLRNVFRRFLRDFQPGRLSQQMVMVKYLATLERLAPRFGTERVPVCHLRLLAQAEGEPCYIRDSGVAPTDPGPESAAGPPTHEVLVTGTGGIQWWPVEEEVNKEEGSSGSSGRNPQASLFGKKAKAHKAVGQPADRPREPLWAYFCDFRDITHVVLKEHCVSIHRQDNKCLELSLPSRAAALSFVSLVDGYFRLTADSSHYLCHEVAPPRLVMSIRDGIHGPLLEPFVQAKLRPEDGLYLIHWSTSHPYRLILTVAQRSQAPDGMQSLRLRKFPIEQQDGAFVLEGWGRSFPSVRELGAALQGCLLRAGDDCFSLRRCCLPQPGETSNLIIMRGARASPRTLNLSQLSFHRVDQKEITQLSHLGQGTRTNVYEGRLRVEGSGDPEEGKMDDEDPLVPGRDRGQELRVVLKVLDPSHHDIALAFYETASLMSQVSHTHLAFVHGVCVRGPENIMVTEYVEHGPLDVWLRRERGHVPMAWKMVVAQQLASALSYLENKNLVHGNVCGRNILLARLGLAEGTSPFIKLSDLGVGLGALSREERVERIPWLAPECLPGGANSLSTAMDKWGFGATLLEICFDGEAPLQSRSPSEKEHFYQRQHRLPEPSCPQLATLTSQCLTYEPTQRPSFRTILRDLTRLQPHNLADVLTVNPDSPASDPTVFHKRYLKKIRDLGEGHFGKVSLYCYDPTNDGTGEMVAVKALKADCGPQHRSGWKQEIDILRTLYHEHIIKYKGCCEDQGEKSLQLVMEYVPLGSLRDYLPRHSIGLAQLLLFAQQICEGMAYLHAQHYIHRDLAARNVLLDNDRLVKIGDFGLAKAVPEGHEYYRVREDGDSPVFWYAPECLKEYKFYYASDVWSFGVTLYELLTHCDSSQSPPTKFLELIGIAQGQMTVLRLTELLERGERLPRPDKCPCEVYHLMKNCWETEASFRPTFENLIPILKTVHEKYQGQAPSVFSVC
How it was run: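 Compound exposure ran 72 h at 37 °C in 5% CO2 across nine 3-fold concentrations from a 20 μM top dose, added 24 h after seeding 2000 cells/well.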

JAK1-JH2 domain = molecular target: T3, JAK1-JH2 domain (Homo sapiens, UniProt P23458); experiment: Binding activity test for JH2 domain of JAK1 (Tb-antibody/tracer FRET)
T3 construct: IC50 on JH2 domain activity (nM)
T3 sequence (P23458 583-855 limits assumed): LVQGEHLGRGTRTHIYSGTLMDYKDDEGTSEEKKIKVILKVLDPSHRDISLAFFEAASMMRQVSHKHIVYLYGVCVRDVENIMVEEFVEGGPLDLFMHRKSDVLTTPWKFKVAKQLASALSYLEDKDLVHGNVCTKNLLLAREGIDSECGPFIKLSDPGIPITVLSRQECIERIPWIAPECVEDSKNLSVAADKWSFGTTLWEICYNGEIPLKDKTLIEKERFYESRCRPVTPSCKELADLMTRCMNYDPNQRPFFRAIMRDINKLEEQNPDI
How it was run: as §1

Kinetic solubility = assay type: physicochemical; details: phosphate buffer, aqueous buffer, kinetic from dmso stock, PBS (pH 7.4), 1% DMSO, room temperature
Procedure: Aliquots of 8 μL of reference and test compound stock solutions (10 mM/5 mM) are added into 792 μL of 100 mM pH 7.4 phosphate buffer. The final DMSO concentration is 1%. Sample tubes are shaken for 2 hours at 1000 rpm at room temperature. Samples are centrifuged at 12000 rpm for 10 min to precipitate un-dissolved particles. And transfer the supernatants to a new tube or plate. Add 5 μL of samples (no diluted, 10 times diluted and 100 times diluted) and standard curve samples to 95 μL of ACN containing IS for LC-MS/MS analysis.

[2] = Plasma protein binding by equilibrium dialysis; assay type: in vitro ADME; details: human plasma, equilibrium dialysis 5 hours at 37° C.; read-out: % Bound (human) (converted)
Procedure: Plasma Protein Binding by Equilibrium Dialysis
Aliquots of test compound stock solution and warfarin stock solution were spiked into plasma to give the matrix solutions with theoretical concentrations of test compound at 0.2 and 2 μM or warfarin at 2 μM. Immediately transfer 50 μL of the spiked plasma solution suspension to a 96-well plate to act as T=0 control sample. Assemble the dialysis set up following the manufacturer's instructions. Load cells with 150 μL of plasma sample and dialyzed against equal volume of dialysis buffer (PBS). The assay is performed in duplicate. Cover the unit with gas permeable lid and incubate for 5 hours at 37° C. at 100 rpm in a constant temperature shaking box. At the end of incubation, remove lid and pipette 50 μL of post-dialysis samples from both buffer and plasma solution chambers into separated 96-well plate for analysis, respectively. Add 50 μL of plasma solution to the buffer samples, and an equal volume of PBS to the collected plasma solution samples. Shake the plate at 1000 rpm for 2 minutes and add 600 μL of 50% ACN/MeOH containing an appropriate internal standard (IS) to precipitate protein and release compound. Vortex at 1000 rpm for 10 minutes. Centrifuge for 10 minutes at 4000 rpm. Then transfer 75 μL of the supernatant to new 96-well plates for analysis. Add 150 μL of distilled water to each sample and mix for analysis by LC-MS/MS.
The free rate (% Unbound), binding rate (% Bound), and recovery rate (% Recovery) of the compound are calculated as follows: […]

JAK1 = molecular target: T4, JAK1 (Homo sapiens, UniProt P23458); experiment: JAK1 kinase activity, microfluidic assay (Caliper EZ Reader II); assay type: biochemical; details: JAK1 5 nM, 1 mM ATP
T4 construct: purchased Carna Biosciences
T4 sequence (P23458 whole entry): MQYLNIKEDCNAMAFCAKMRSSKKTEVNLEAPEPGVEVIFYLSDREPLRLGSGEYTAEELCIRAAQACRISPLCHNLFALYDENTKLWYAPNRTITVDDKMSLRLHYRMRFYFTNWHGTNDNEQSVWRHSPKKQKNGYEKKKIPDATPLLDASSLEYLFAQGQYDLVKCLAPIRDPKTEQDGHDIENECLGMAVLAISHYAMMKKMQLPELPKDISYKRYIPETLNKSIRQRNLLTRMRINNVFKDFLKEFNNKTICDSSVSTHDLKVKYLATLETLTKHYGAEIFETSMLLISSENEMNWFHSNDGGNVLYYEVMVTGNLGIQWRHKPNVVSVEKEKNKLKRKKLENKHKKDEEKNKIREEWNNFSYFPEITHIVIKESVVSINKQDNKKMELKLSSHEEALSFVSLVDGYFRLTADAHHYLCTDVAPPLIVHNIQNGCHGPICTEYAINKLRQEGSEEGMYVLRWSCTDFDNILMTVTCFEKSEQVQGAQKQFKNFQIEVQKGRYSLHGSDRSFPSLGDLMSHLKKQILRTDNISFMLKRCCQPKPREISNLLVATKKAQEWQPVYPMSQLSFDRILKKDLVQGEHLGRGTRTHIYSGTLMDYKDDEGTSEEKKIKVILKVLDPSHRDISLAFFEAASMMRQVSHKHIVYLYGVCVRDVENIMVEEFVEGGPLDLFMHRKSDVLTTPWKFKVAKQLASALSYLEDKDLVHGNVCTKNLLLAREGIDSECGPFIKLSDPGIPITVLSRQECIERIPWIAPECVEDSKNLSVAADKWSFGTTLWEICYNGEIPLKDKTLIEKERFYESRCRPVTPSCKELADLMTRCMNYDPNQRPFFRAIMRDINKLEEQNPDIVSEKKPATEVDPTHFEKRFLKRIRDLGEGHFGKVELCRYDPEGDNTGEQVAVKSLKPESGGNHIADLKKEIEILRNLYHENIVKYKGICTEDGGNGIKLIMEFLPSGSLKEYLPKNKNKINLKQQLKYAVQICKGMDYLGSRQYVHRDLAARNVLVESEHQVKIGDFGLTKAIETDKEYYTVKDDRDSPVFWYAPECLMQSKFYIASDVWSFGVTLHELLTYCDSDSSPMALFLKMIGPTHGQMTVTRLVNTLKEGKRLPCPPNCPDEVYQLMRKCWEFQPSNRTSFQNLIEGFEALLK
Procedure: (§2) Testing for JAK1, JAK2 and TYK2 Kinase Activities
(§3) JAK activity was determined in the reaction buffer 50 mM HEPES, 0.01% Brij35, 10 mM MgCl2, 2 mM DTT by a microfluidic assay. The phosphorylation of a FAM labeled peptide substrate was monitored in the Caliper EZ Reader II (Perkin Elmer). The assay condition for each batch of enzyme (Carna Biosciences) was optimized to obtain 10% conversion rate of peptide substrate.
(§4) The test compounds were dissolved in DMSO to a stock concentration of 10 mM. Three-fold serially diluted compounds with top concentration of 5 μM were pre-incubated with JAK1, JAK2 or TYK2 for 10 min at ambient temperature. The final DMSO concentration of assay mixture was 1%. […] The reaction was stopped by adding 50 mM EDTA.
(§5) The percent inhibition was calculated by the following formula:
(§6) [formula] • wherein • Conversion %_max=the conversion rate in the positive well without addition of compound • Conversion %_sample=the conversion rate of test compounds • Conversion %_min=the conversion rate in the well without addition of enzyme
(§7) The dose-response (percent inhibition) curve was plotted and IC50 values were determined by GraphPad software.

JAK2 = molecular target: T5, JAK2 (Homo sapiens, UniProt O60674); experiment: JAK2 kinase activity, microfluidic assay (Caliper EZ Reader II); assay type: biochemical; details: JAK2 0.125 nM, 1 mM ATP
T5 construct: purchased Carna Biosciences
T5 sequence (O60674 whole entry): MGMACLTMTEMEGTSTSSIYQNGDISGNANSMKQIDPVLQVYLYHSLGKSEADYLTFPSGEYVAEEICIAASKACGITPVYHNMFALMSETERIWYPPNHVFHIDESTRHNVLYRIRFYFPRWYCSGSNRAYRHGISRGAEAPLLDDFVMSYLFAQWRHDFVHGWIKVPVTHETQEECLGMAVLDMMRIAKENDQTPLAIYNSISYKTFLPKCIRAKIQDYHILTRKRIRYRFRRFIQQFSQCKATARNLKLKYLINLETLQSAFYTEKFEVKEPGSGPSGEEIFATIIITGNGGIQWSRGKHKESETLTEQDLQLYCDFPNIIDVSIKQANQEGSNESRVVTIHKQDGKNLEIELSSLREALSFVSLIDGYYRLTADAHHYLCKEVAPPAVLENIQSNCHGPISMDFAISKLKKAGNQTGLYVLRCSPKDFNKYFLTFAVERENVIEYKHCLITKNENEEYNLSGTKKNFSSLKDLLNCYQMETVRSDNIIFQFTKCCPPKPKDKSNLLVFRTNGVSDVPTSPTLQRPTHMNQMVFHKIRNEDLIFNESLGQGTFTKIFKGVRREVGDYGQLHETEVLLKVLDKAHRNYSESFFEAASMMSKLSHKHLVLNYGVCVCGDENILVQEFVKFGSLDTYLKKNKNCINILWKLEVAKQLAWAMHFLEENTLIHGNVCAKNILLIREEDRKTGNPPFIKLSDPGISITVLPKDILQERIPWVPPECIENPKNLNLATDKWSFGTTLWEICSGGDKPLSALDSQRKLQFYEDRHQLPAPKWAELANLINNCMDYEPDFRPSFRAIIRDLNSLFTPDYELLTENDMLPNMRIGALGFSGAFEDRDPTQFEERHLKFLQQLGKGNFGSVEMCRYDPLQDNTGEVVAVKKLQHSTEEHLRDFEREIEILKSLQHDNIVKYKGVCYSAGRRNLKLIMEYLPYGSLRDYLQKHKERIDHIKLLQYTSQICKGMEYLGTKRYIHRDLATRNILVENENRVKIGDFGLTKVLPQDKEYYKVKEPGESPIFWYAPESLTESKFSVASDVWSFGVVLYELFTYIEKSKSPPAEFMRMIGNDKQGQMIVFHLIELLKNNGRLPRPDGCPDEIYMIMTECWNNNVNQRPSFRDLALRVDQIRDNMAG
Procedure: as §2, §3, §4, §5, §6, §7

TYK2 = molecular target: T6, TYK2 (Homo sapiens, UniProt P29597); experiment: TYK2 kinase activity, microfluidic assay (Caliper EZ Reader II); assay type: biochemical; details: TYK2 1 nM, 1 mM ATP
T6 construct: purchased Carna Biosciences
T6 sequence (P29597 whole entry): as the sequence (P29597 whole entry P760L) above, with L760P counted along it
Procedure: as §2, §3, §4, §5, §6, §7

Row | SMILES | IC50 (TYK2-JH2 domain) [nM] | JAK1/TYK2 selectivity (TYK2-JH2 domain) | GI50 [1] [nM] | IC50 (JAK1-JH2 domain) [nM] | solubility at 2 h (Kinetic solubility) [µM] | fraction unbound at 5 h [2] | IC50 (JAK1) [nM] | IC50 (JAK2) [nM] | IC50 (TYK2) [nM]
1 | [2H]C([2H])([2H])NC(=O)c1cnc(NC(=O)C2CC2)cc1Nc1ccc2cnn(C)c2c1OC [Example 206, 6-(Cyclopropanecarboxamido)-4-((7-methoxy-1-methyl-1H-indazol-6-yl)amino)-N-(methyl-d3)nicotinamide] | 0.623 | 17.6 | 68.5 | 11 | 28.7 (≈ 11.4 µg/mL) | 0.07 |  |  | 
2 | [2H]C([2H])([2H])NC(=O)c1cnc(NC(=O)C2CC2)cc1Nc1ccc2cn[nH]c2c1OC [Example 207, 6-(Cyclopropanecarboxamido)-4-((7-methoxy-1H-indazol-6-yl)amino)-N-(methyl-d3)nicotinamide] | 0.407 |  | 149 |  | 8.45 (≈ 3.24 µg/mL) | 0.039 |  |  | 
3 | [2H]C([2H])([2H])NC(=O)c1cnc(NC(=O)C2CC2)cc1Nc1ccc2cnn(C(C)C#N)c2c1OC (stereo not drawn) [Example 249, 4-((1-(1-Cyanoethyl)-7-methoxy-1H-indazol-6-yl)amino)-6-(cyclopropanecarboxamido)-N-(methyl-d3)nicotinamide] | 0.782 | 32.5 | 357 | 25.4 | 47.4 (≈ 20.7 µg/mL) |  |  |  | 
4 | CCn1ncc2cnc(Nc3cc(NC(=O)C4CC4)ncc3C(=O)NC)c(OC)c21 [Example 261, 6-(Cyclopropanecarboxamido)-4-((1-ethyl-7-methoxy-1H-pyrazolo[4,3-c]pyridin-6-yl)amino)-N-methylnicotinamide] | 0.956 | 47.4 | 113 | 45.4 | 58 (≈ 23.8 µg/mL) | 0.085 | > 5000 | > 5000 | > 5000
